The source of these data is patent US20090022803A1, “Oral Formulations For Delivery of Catecholic Butanes Including Ndga Compounds” (priority 2005, published 2009).

The subject of one data set is HeLa cells. The data set is described as follows: Cell proliferation and cell death after 72 hr treatment, trypan blue exclusion. It is filed as cell-based, human. The note with it: CPE formulation, lots EM1001 and EM1002. As for the experimental part:
M4N in 10% (w/v) HP-β-CD and 25% (v/v) PEG 300 (hereafter, the “CPE formulation”), M4N in 30% (w/v) HP-β-CD and 25% (v/v) PEG 300 (hereafter, the “CPE 25/30 formulation”) and M4N in 27% (w/v) HP-β-CD and 33% (v/v) PEG 300 (hereafter, the “CPE 33/27 formulation”) was tested for their effects on cell death and proliferation on two different tumor cell lines: HeLa, an HPV-18 positive human cervical cancer cell line, and C-33A, an HPV-negative human cervical cancer cell line. M4N in DMSO was also tested in parallel. Both tumor cell lines were treated with increasing amounts of M4N: 0 μM, 20 μM, 40 μM, 60 μM and 80 μM, for 72 hr with the DMSO or the CPE formulation. […] After 72 hr of treatment or no treatment, the total number of cells and the number of live cells in each sample were counted, using the trypan blue exclusion method. The cell proliferation rate and the percentage of dead cells in each sample were analyzed. […]
Various lots of M4N were tested to show the effectiveness of the drug of different lots. […] After 72 hr of treatment or no treatment, the total number of cells and the number of live cells in each sample were counted, using the trypan blue exclusion method. The cell proliferation rate and the percentage of dead cells in each sample were analyzed.

Data set [1] is described as follows: 40 mg/mL M4N/PEG 300 stability, RP-HPLC analysis. The note with it: for M4N: 40 mg/mL M4N/PEG 300. It is filed as physicochemical. As for the experimental part: The stability of 40 mg/mL M4N dissolved in 100% PEG 300 was evaluated up to 24 hours incubation at 30° C., 45° C. and 60° C. A stock 40 mg/mL M4N in PEG 300 was prepared at 60° C., following the procedure set forth in Example 18. Subsequently, aliquots were removed and incubated at the appropriate temperature. Samples were rotated at 450 rpm during the entire course of incubation. Visual observations and RP-HPLC data were collected throughout. […] The formation of crystals coincided with a loss of soluble M4N (Table 30). The 40 mg/mL M4N/PEG 300 samples incubated at 45° C. and 60° C. were stable after 24 hours incubation as assessed by visual observations and RP-HPLC analysis (Tables 29 and 30).

A short description of data set [2]: Absorption of M4N in beagle dogs upon oral administration of solid formulations in capsules, serum LC/MS/MS. The class given is in vivo. The note with it: oral single 100 mg/kg. As for the experimental part: Five groups of dogs (n=2 per group, one male and one female) (age=approximately 6-9 months old) were exposed to a single 100 mg/kg dose of M4N in excipient to determine the optimal oral solid excipient. The composition of M4N in excipient was encapsulated in size 12 hard gelatin capsules prior to oral administration. The animals were fasted overnight prior to dosing. The excipients/formulations tested are set forth in Table 19 and were: (a) no excipient, where M4N was encapsulated; (b) HP-β-CD; (c) TPGS; (d) soybean oil+beeswax; and (e) olive oil+beeswax. Blood was collected from each animal via the jugular vein at the following time points: predose, 0.5 hr, 1 hr, 1.5 hr, 2 hr, 4 hr, 6 hr and 8 hr post dosing. Concentrations of M4N in serum were determined by Liquid Chromatography combined with tandem Mass Spectroscopy (LC/MS/MS).

Take `COc1ccc(C[C@@H](C)[C@@H](C)Cc2ccc(OC)c(OC)c2)cc1OC` [Formulation M4N, meso-1,4-bis(3,4-dimethoxyphenyl)-2,3-dimethylbutane]: the “effectiveness of different lots of M4N” value in the data set with HeLa cells was “remains the same”. For the same compound, in data set [1] (40 mg/mL M4N/PEG 300, 30° C., 45° C. and 60° C.), the “amount or types of impurities peaks” value was “No changes”. Moreover, the “stability by visual observations and RP-HPLC analysis” value is given as “stable” in data set [1] (40 mg/mL M4N/PEG 300, 24 hours at 45° C.) and “stable” in data set [1] (40 mg/mL M4N/PEG 300, 24 hours at 60° C.). Besides, the “M4N” value in data set [1] (30° C., 0 hours) was determined as 39.5 mg/mL; in data set [1] (30° C., 2 hours), 40.8 mg/mL; in data set [1] (30° C., 6 hours), 40.6 mg/mL; in data set [1] (30° C., 24 hours) it was 37.4 mg/mL; in data set [1] (45° C., 2 hours), 40.4 mg/mL; in data set [1] (45° C., 6 hours) it was 39.8 mg/mL. For the same compound, the “M4N” value turned out to be 40.6 mg/mL in data set [1] (45° C., 24 hours); 39.1 mg/mL in data set [1] (60° C., 2 hours); 39.2 mg/mL in data set [1] (60° C., 6 hours); 39.2 mg/mL in data set [1] (60° C., 24 hours). The “Absorption, ranking between formulations” value in data set [2] (Lyophilized HP-β-CD (81%)+M4N (185 mg/g)) is recorded as “higher than that containing TPGS”; in data set [2] (TPGS (20%)+M4N (133 mg/g)), “higher than that containing soybean oil+beeswax”; in data set [2] (olive oil (95%)+beeswax (5%)+M4N (200 mg/g)), “highest”; in data set [2] (soybean oil (95%)+beeswax (5%)+M4N (200 mg/g)), “higher than M4N without an excipient”.
